Measured values published in patent US20080004311A1, “HISTONE DEACETYLASE INHIBITORS FOR TREATING DEGENERATIVE DISEASES OF THE EYE” (ALCON, INC., priority 2002, published 2008).

System: cultured adult rat retinal ganglion cells (RGC)
Test: Survival of cultured adult rat retinal ganglion cells (RGC), Thy-1-positive healthy cell count
Format: cell-based
Details: Thy-1-positive healthy cells counted; for RGC survival against trophic factor withdrawal (TFW)-induced toxicity: bFGF, BDNF and CNTF removed from medium, cultured with compound for 3 days; for RGC survival against TNFα-induced toxicity / RGC survival against glutamate-induced toxicity: pre-treated 30 minutes; for RGC survival against TNFα-induced toxicity: then 10 ng/mL TNFα for 3 days; for RGC survival against glutamate-induced toxicity: then 100 μM glutamate for 3 days
Procedure: Culture of rat retinal ganglion cells (RGC) was performed as described in Pang et al. (Pang et al., 2007, BMC Neuroscience 8:11). Adult Sprague-Dawley rats were briefly euthanized by CO2 asphyxiation. Their eyes were enucleated and placed in the Neurobasal medium. The retina from each eye was detached and isolated. Retinal cells were dissociated by combining up to 20 retinas with 5 mL of papain solution, containing 10 mg papain, 2 mg DL-cysteine, and 2 mg bovine serum albumin in 5 ml of Neurobasal medium, for 25 min at 37° C., then washed 3 times with 5 mL RGC medium (Neurobasal medium with various nutrient supplements)+1% fetal calf serum. Retinal pieces were triturated by passing through a fire-polished disposable pipette several times until cells were dispersed. Cell suspension was placed onto of the poly-D-lysine- and laminin-coated 8-well chambered culture slide. The cells were then cultured in 95% air/5% CO2 at 37° C.
For glutamate-induced toxicity studies, cells were pre-treated with vehicle (cell media plus 0.1% DMSO) or the indicated compounds for 30 minutes, followed by 100 μM glutamate for 3 days. For TNFα-induced toxicity studies, cells were pre-treated with vehicle or the indicated compounds for 30 minutes, followed by 10 ng/mL TNFα for 3 days. For s trophic factor withdrawal (TFW) studies, three trophic factors, basic fibroblast growth factor, brain-derived neurotrophic factor, and ciliary neurotrophic factor, were removed from the culture medium. Cells were cultured in this medium with the indicated compounds for 3 days.
At the end of the incubation period, the cells were fixed and labeled for Thy-1, a RGC marker, by immunocytochemistry. Cell survival was quantified by manually counting Thy-1-positive healthy cells in each well. As shown by the data in FIGS. 1, 2, and 3, APHA-8 (Sigma, St. Louis, Mo.) and Scriptaid™ (Sigma, St. Louis, Mo.) were protective against glutamate-, tumor necrosis factor-alpha (TNFα)-, and trophic factor withdrawal (TFW)-induced toxicity.

Cn1cc(C(=O)Cc2ccccc2)cc1C=CC(=O)NO [APHA-8, 3-(1-methyl-4-phenlyacetyl-1H-2-pyrrolyl)-N-hydroxy-2-propenamide]
protective: RGC survival against trophic factor withdrawal (TFW)-induced toxicity | RGC survival against TNFα-induced toxicity | RGC survival against glutamate-induced toxicity

O=C(CCCCCN1C(=O)c2cccc3cccc(c23)C1=O)NO [Scriptaid™, 6-(1,3-Dioxo-1H, 3H-benzo[de]isoquinolin-2-yl)-hexanoic acid hydroxyamide]
protective: RGC survival against trophic factor withdrawal (TFW)-induced toxicity | RGC survival against TNFα-induced toxicity | RGC survival against glutamate-induced toxicity
